Measured values published in patent US20100197588A1, “USE OF A PEPTIDE AS A THERAPEUTIC AGENT” (priority 2007, published 2010).
Where no end group is shown, it is not given here.

Experiments:
HIV-1IIIB = experiment: HIV-1 antiviral assay in CEM-SS cells (MTS readout)
HCMV strain AD169 = experiment: HCMV plaque formation assay in MRC-5 cells
[1] = test system: hepatitis B virus (HBV) ayw strain; experiment: HBV experimental assay system, secreted HBV DNA by TaqMan PCR in HepG2-2.2.15 cells; assay type: cell-based; conditions: 10 micrograms per ml, six days
Source text: HepG2-2.2.15 is a stable cell line containing the hepatitis B virus (HBV) ayw strain genome (ATCC Cat. No. CRL-11997). Antiviral compounds blocking any late step of viral replication such as transcription, translation, pregenome encapsidation, reverse transcription, particle assembly and release can be identified and characterized using this cell line. In this assay, an active compound will reduce the production of secreted HBV from cells, measured by utilizing real time quantitative PCR (TaqMan) assay to directly and accurately measure HBV DNA copies.
HepG2-2.2.15 cells were plated in 96-well microtiter plates. After 16-24 hours the confluent monolayer of HepG2-2.2.15 cells was washed and the medium was replaced with complete medium containing test peptides—10 micrograms per ml—in duplicate. […] Six days following the initial administration of the peptides, the cell culture supernatants was collected, treated with pronase and DNAse and then used in a real-time quantitative TaqMan PCR assay. The PCR-amplified HBV DNA was detected in real-time by monitoring increases in fluorescence signals that result from the exonucleolytic degradation of a quenched fluorescence probe molecule that hybridizes to the amplified HBV DNA. […] Antiviral activity was calculated from the reduction in HBV DNA levels (% virus control). […]

[2] = test system: Primary Human endothelial cells (HUVEC); experiment: Endothelial cell migration assay; conditions: 10 micrograms per ml, 22 hours
Method: Primary Human endothelial cells (HUVEC) were seeded in insert chambers with 3 micrometer pore size of multi-transwell plate for 6 hours at 37° C. in Endothelial Cell Basal Medium (EBM) supplemented with 0.1% bovine serum albumin. Thereafter, designated concentration of testing peptides—10 micrograms per ml—was added in duplicate wells. The endothelia were allowed to migrate for 22 hours at 37° C., then, migrated cells were fixed and stained with Hoechst 33342 dye. Images of 3 fields per insert were taken and the number of migrated cells per field were quantified using the ImageProPlus software. Data were analyzed for the average number of the migrated cells and standard deviation of six data points for each treatment condition. […] Statistic p values were computed using the Student's t-test.

HUVEC = experiment: Endothelial tube formation assay; conditions: 10 micrograms per ml, 20 hours, combination peptide 1:peptide 2 0.95 mole:1.05 mole
Method: The endothelial tube formation assay is based on the ability of endothelial cells to form three-dimensional capillary-like tubular structures when cultured on a gel of basement membrane extract. […] Pre-labeled HUVEC with Calcein AM were seeded in a 96-well culture plate coated with extracellular metrix (Chemicon international Cat. ECM625) and treated with test peptides—10 micrograms per ml—in full growth medium. Positive control was vehicle only. The endothelial cells were allowed to form tubes for 20 hours and were then examined under an inverted fluorescent microscope. Duplicate wells for each treatment were photographed and quantitatively analyzed for an average tubule length using image analysis software ImageProPlus. Raw data were expressed as average tubule lengths in pixels ±standard deviation. Statistic p values were computed using the Student's t-test.

Interleukin-2 (IL-2) = experiment: Th1/Th2 cytokine profiling assay, IL-2; conditions: 10 micrograms per ml; Ovalbumin-restimulated Balb/c spleen cells, 72 hours
Source text: (§1) The Balb/c mice (originated in 1923, it is a popular strain and is used in many different research disciplines. Also classified as an inbred from the production of 20 or more successive brother-sister matings, the Balb/c mouse is albino and small in size) were immunized on Days 1, 15, and 29 with Ovalbumin (Ovalbumin is the main protein found in egg white, commonly used to stimulate an immunological reaction in test animals) in PBS (5 micrograms/injection). On day 50, spleens of the mice were harvested (3 weeks after last boost with Ovalbumin). […] Thereafter, additional Ovalbumin was added to the cells at 10 micrograms/ml for in vitro restimulation of the cells. 72 hours later, cell supernatants were harvested and assayed using the Becton Dickinson Mouse Th1/Th2 Cytokine CBA Kit. This kit can be used to measure Interleukin-2 (IL-2), Interleukin-4 (IL-4), Interleukin-5 (IL-5), Interferon-γ (IFN-γ), and Tumor Necrosis Factor-α (TNF-α) protein levels in a single sample.

Interleukin-4 (IL-4) = experiment: Th1/Th2 cytokine profiling assay, IL-4; conditions: 10 micrograms per ml; Ovalbumin-restimulated Balb/c spleen cells, 72 hours
Source text: as §1

Interleukin-5 (IL-5) = experiment: Th1/Th2 cytokine profiling assay, IL-5; conditions: 10 micrograms per ml; Ovalbumin-restimulated Balb/c spleen cells, 72 hours
Source text: as §1

[3] = test system: Tumor Necrosis Factor-α (TNF-α); experiment: Th1/Th2 cytokine profiling assay, TNF-α; conditions: 10 micrograms per ml; Ovalbumin-restimulated Balb/c spleen cells, 72 hours
Source text: (§2) The Balb/c mice (originated in 1923, it is a popular strain and is used in many different research disciplines. Also classified as an inbred from the production of 20 or more successive brother-sister matings, the Balb/c mouse is albino and small in size) were immunized on Days 1, 15, and 29 with Ovalbumin (Ovalbumin is the main protein found in egg white, commonly used to stimulate an immunological reaction in test animals) in PBS (5 micrograms/injection). On day 50, spleens of the mice were harvested (3 weeks after last boost with Ovalbumin). […] Thereafter, additional Ovalbumin was added to the cells at 10 micrograms/ml for in vitro restimulation of the cells. 72 hours later, cell supernatants were harvested and assayed using the Becton Dickinson Mouse Th1/Th2 Cytokine CBA Kit. This kit can be used to measure Interleukin-2 (IL-2), Interleukin-4 (IL-4), Interleukin-5 (IL-5), Interferon-γ (IFN-γ), and Tumor Necrosis Factor-α (TNF-α) protein levels in a single sample. The kit performance has been optimized for analysis of physiologically relevant concentrations (μg/ml levels) of specific cytokine proteins in tissue culture supernatants and serum samples.

Interferon-γ (IFN-γ) = experiment: Th1/Th2 cytokine profiling assay, IFN-γ; conditions: 10 micrograms per ml; Ovalbumin-restimulated Balb/c spleen cells, 72 hours
Source text: as §2

A549 cells = experiment: Apoptosis prevention assay (C2 ceramide, Annexin-5); conditions: 10 micrograms per ml, 30 min pretreatment, then C2 ceramide, combination 0.95 mole peptide 1 and 1.05 mole peptide 2
Method: Human A549 cells (carcinomic human alveolar basal epithelial cells) were utilized in the experiments employing the Annexin-5 apoptosis assay. […] A549 cells were pretreated for 30 min with test peptides—10 micrograms per ml—followed by the exposure to C2 ceramide.

[4] = test system: Human Peripheral Blood Mononuclear Cells (PBMC), B cell proliferation; experiment: B cell proliferation assay (SAC plus Interleukin-2 stimulated PBMC, 3H-thymidine); conditions: 10 micrograms per ml, 3 days
Method: Human Peripheral Blood Mononuclear Cells (PBMC) were obtained from normal human donors. The B cell proliferation was induced by stimulation of the cells with the B cell mitogen Staphylococcus aureus Cowans I (SAC) plus Interleukin-2, either in the absence (positive proliferation control), or in the presence of test peptides—10 micrograms per ml—to examine their effects on the B cell response. 10^5/well PBMC were plated in 96-well microtiter plates and assayed in duplicate with the peptides. […] At the end of incubation time, the plates were harvested and the cells counted by liquid scintillation for the incorporation of ^3H-thymidine as a measure of B cell proliferation.

Question: Which “antiviral activity of positive control compounds (HIV-1)” value (HIV-1IIIB) does the source give for `CC(C)(C)NC(=O)[C@@H]1CN(Cc2cccnc2)CCN1C[C@@H](O)C[C@@H](Cc1ccccc1)C(=O)N[C@H]1c2ccccc2C[C@H]1O` [indinavir] here?
Answer: Its value is “expected levels of antiviral activity”.

Question: For `Nc1nc(O)c2ncn(COC(CO)CO)c2n1` [Ganciclovir], which “antiviral activity of positive control compound (HCMV)” value (HCMV strain AD169) is on record?
Answer: The value was “expected levels of antiviral activity”.

Question: How did the “inhibition of HBV replication as compared to the virus control infection” value [1] turn out when “His-Ser-Asp-Gly-Ile-Phe-Thr-Asp-Ser-Tyr-Ser-Arg-Tyr-Arg-Lys-Gln-Met-Ala-Val-Lys-Lys-Tyr-Leu-Ala-Ala-Val-Leu-Gly-Lys-Arg-Tyr-Lys-Gln-Arg-Val-Lys-Asn-Lys-NH2 (HSDGIFTDSYSRYRKQMAVKKYLAAVLGKRYKQRVKNK-NH2) [peptide 1]” was run?
Answer: Its value is 48.0%.

Question: And the “inhibition of the migration of endothelial cells” value ([2]; combination peptide 1:peptide 2 0.95 mole:1.05 mole)?
Answer: The value was 6%.

Question: And the “induction of the tube formation of human endothelial cells” value (HUVEC)?
Answer: The value was 36%.

Question: And the “IL-2 spleen cells (% of control)” value (Interleukin-2 (IL-2))?
Answer: The value was 0.0 % of control.

Question: And the “IL-4 spleen cells; TH2 response (% of control)” value (Interleukin-4 (IL-4))?
Answer: The value was 120.1 % of control.

Question: What about the “IL-5 spleen cells; TH2 response (% of control)” value (Interleukin-5 (IL-5)) of the same compound?
Answer: Its value is 63.0 % of control.

Question: And the “TNF-a spleen cells; TH1 response (% of control)” value [3]?
Answer: Its value is 94.0 % of control.

Question: And the “IFNγ spleen cells; TH1 response (% of control)” value (Interferon-γ (IFN-γ))?
Answer: The value was 60.8 % of control.

Question: What about the “induction of the ceramide-induced apoptosis on human lung cells” value (A549 cells) of the same compound?
Answer: Its value is “did not induce”.

Question: What about the “induction of the proliferation of specifically stimulated human B-cells” value [4] of the same compound?
Answer: Its value is 23.3%.

Question: Which “antiviral activity of positive control compounds (HIV-1)” value (HIV-1IIIB) does the source give for `Cc1cn([C@H]2C[C@H](N=[N+]=[N-])[C@@H](CO)O2)c(=O)[nH]c1=O` [AZT] here?
Answer: The value was “expected levels of antiviral activity”.

Question: Which results are given for “Ac-Met-Trp-Asp-Phe-Asp-Asp-Leu-Asn-Phe-Thr-Gly-Met-Pro-Pro-Ala-Asp-Glu-Asp-Tyr-Ser-Pro-NH2 (Ac-MWDFDDLNFTGMPPADEDYSP-NH2) [peptide 2]”?
Answer: inhibition of HBV replication as compared to the virus control infection [1]: no effect; induction of the migration of endothelial cells [2]: 9%; induction of the tube formation of human endothelial cells (HUVEC): 32%; IL-2 spleen cells (% of control) (Interleukin-2 (IL-2)): 63.0 % of control; IL-4 spleen cells; TH2 response (% of control) (Interleukin-4 (IL-4)): 136.3 % of control; IL-5 spleen cells; TH2 response (% of control) (Interleukin-5 (IL-5)): 59.3 % of control; TNF-a spleen cells; TH1 response (% of control) [3]: 90.3 % of control; IFNγ spleen cells; TH1 response (% of control) (Interferon-γ (IFN-γ)): 59.2 % of control; induction of the ceramide-induced apoptosis on human lung cells (A549 cells): 19.65%; induction of the proliferation of specifically stimulated human B-cells [4]: does not show any induction
